Our source for the EC50 values is patent US10221156B2, “Pyridin-3-yl acetic acid derivatives as inhibitors of human immunodeficiency virus replication” (ViiV HEALTHCARE UK (No. 5) LIMITED, priority 2015, dated 2019).

Where two headings read alike, the source gives them in different places.

The assay concerns recombinant NL-RLuc virus (HIV NL4-3 with Renilla Luciferase) in MT-2 cells. The assay is described as follows: Inhibition of HIV replication (NL-RLuc virus in MT-2 cells, luciferase readout). Type of assay: cell-based. From the text:
Inhibition of HIV Replication:
A recombinant NL-RLuc proviral clone was constructed in which a section of the nef gene from NL4-3 was replaced with the Renilla Luciferase gene. This virus is fully infectious and can undergo multiple cycles of replication in cell culture. In addition, the luciferous reporter provides a simple and easy method for quantitating the extent of virus growth and consequently, the antiviral activity of test compounds. The plasmid pNLRLuc contains the proviral NL-Rluc DNA cloned into pUC18 at the PvuII site. The NL-RLuc virus was prepared by transfection of 293T cells with the plasmid pNLRLuc. Transfections were performed using the LipofectAMINE PLUS kit from Invitrogen (Carlsbad, Calif.) according to the manufacturer and the virus generated was titered in MT-2 cells. For susceptibility analyses, the titrated virus was used to infect MT-2 cells in the presence of compound, and after 5 days of incubation, cells were processed and quantitated for virus growth by the amount of expressed luciferase. Assay media was RPMI 1640 supplemented with 10% heat inactivated fetal bovine serum (FBS), 100 units/ml penicillin G/100 units/ml streptomycin, 10 mM HEPES buffer pH 7.55 and 2 mM L-glutamine. The results from at least 2 experiments were used to calculate the EC50 values. Luciferase was quantitated using the Dual Luciferase kit from Promega (Madison, Wis.). Susceptibility of viruses to compounds was determined by incubation in the presence of serial dilutions of the compound. The 50% effective concentration (EC50) was calculated by using the exponential form of the median effect equation where (Fa)=1/[1+(ED50/drug conc.)^m] (Johnson V A, Byington R T. Infectivity Assay. In Techniques in HIV Research. ed. Aldovini A, Walker B D. 71-76. New York: Stockton Press. 1990). Activity equal to A refers to a compound having an EC50≤100 nM, while B and C denote compounds having an EC50 between 100 nM and 1 uM (B) or >1 uM (C).

As to `Cc1nc(C)c([C@H](OC(C)(C)C)C(=O)O)c(N2CCC(C)(C)CC2)c1-c1ccc(OCCN2CCN(C)CC2)cc1` [Example 1, (S)-2-(tert-Butoxy)-2-(4-(4,4-dimethylpiperidin-1-yl)-2,6-dimethyl-5-(4-(2-(4-methylpiperazin-1-yl)ethoxy)phenyl)pyridin-3-yl)acetic Acid], the EC50 reads like this: (MT2, 120 h, read-out: Activity) 0.1 to 1 µM; (MT2, 120 h, read-out: EC50 μM) 0.117 µM.
Regarding `Cc1nc(C)c([C@H](OC(C)(C)C)C(=O)O)c(N2CCC(C)(C)CC2)c1-c1ccc(OCCC2CCCCC2)cc1` [Example 2, (S)-2-(tert-Butoxy)-2-(5-(4-(2-cyclohexylethoxy)phenyl)-4-(4,4-dimethylpiperidin-1-yl)-2,6-dimethylpyridin-3-yl)acetic Acid], the EC50 reads like this: (MT2, 120 h, read-out: Activity) less than 0.1 µM; (MT2, 120 h, read-out: EC50 μM) 0.034 µM.
Regarding `Cc1nc(C)c([C@H](OC(C)(C)C)C(=O)O)c(N2CCC(C)(C)CC2)c1-c1ccc(OC2CCOc3ccccc32)cc1` (stereo partly drawn) [Example 3, (2S)-2-(tert-Butoxy)-2-(5-(4-(chroman-4-yloxy)phenyl)-4-(4,4-dimethylpiperidin-1-yl)-2,6-dimethylpyridin-3-yl)acetic Acid], where the note is “MT2, 120 h, read-out: Activity”, the EC50 was less than 0.1 µM.
Take `Cc1nc(C)c([C@H](OC(C)(C)C)C(=O)O)c(N2CCC(C)(C)CC2)c1-c1ccc(OCCN2CCCCC2)cc1` [Example 4, (S)-2-(tert-Butoxy)-2-(4-(4,4-dimethylpiperidin-1-yl)-2,6-dimethyl-5-(4-(2-(piperidin-1-yl)ethoxy)phenyl)pyridin-3-yl)acetic Acid]: the EC50 (MT2, 120 h, read-out: Activity) is less than 0.1 µM.
As to `Cc1nc(C)c([C@H](OC(C)(C)C)C(=O)O)c(N2CCC(C)(C)CC2)c1-c1ccc(OCCN2CCOCC2)cc1` [Example 5, (S)-2-(tert-Butoxy)-2-(4-(4,4-dimethylpiperidin-1-yl)-2,6-dimethyl-5-(4-(2-morpholinoethoxy)phenyl)pyridin-3-yl)acetic Acid], the EC50 was less than 0.1 µM (MT2, 120 h, read-out: Activity) and 0.021 µM (MT2, 120 h, read-out: EC50 μM).
As for `COc1cccc(C2CCN(CCOc3ccc(-c4c(C)nc(C)c([C@H](OC(C)(C)C)C(=O)O)c4N4CCC(C)(C)CC4)cc3)CC2)c1` [Example 6, (S)-2-(tert-Butoxy)-2-(4-(4,4-dimethylpiperidin-1-yl)-5-(4-(2-(4-(3-methoxyphenyl)piperidin-1-yl)ethoxy)phenyl)-2,6-dimethylpyridin-3-yl)acetic Acid], the EC50 (MT2, 120 h, read-out: Activity) is less than 0.1 µM.
For `Cc1nc(C)c([C@H](OC(C)(C)C)C(=O)O)c(N2CCC(C)(C)CC2)c1-c1ccc(OCCN2CCC(C)CC2)cc1` [Example 7, (S)-2-(tert-Butoxy)-2-(4-(4,4-dimethylpiperidin-1-yl)-2,6-dimethyl-5-(4-(2-(4-methylpiperidin-1-yl)ethoxy)phenyl)pyridin-3-yl)acetic Acid], the EC50 (MT2, 120 h, read-out: Activity) was less than 0.1 µM.
On to `Cc1nc(C)c([C@H](OC(C)(C)C)C(=O)O)c(N2CCC(C)(C)CC2)c1-c1ccc(OCC2CCC(C)CC2)cc1` (stereo partly drawn) [Example 8, (S)-2-(tert-Butoxy)-2-(4-(4,4-dimethylpiperidin-1-yl)-2,6-dimethyl-5-(4-((4-methylcyclohexyl)methoxy)phenyl)pyridin-3-yl)acetic Acid], for which the EC50 (MT2, 120 h, read-out: Activity) was less than 0.1 µM.
For `Cc1nc(C)c([C@H](OC(C)(C)C)C(=O)O)c(N2CCC(C)(C)CC2)c1-c1ccc(OCC2CCC(C)CC2)cc1` (stereo partly drawn) [Example 9, (S)-2-(tert-Butoxy)-2-(4-(4,4-dimethylpiperidin-1-yl)-2,6-dimethyl-5-(4-((4-methylcyclohexyl)methoxy)phenyl)pyridin-3-yl)acetic Acid], the EC50 ({}) is less than 0.1 µM.
As for `Cc1nc(C)c([C@H](OC(C)(C)C)C(=O)O)c(N2CCC(C)(C)CC2)c1-c1ccc(OCCN2CCN(Cc3ccc(F)cc3)CC2)cc1` [Example 10, (S)-2-(tert-Butoxy)-2-(4-(4,4-dimethylpiperidin-1-yl)-5-(4-(2-(4-(4-fluorobenzyl)piperazin-1-yl)ethoxy)phenyl)-2,6-dimethylpyridin-3-yl)acetic Acid], the EC50 (MT2, 120 h, read-out: Activity) was less than 0.1 µM.
Regarding `Cc1nc(C)c([C@H](OC(C)(C)C)C(=O)O)c(N2CCC(C)(C)CC2)c1-c1ccc(OCC2(c3ccc(F)cc3)CC2)cc1` [Example 11], the EC50 reads like this: (MT2, 120 h, read-out: Activity) less than 0.1 µM; (MT2, 120 h, read-out: EC50 μM) 0.003 µM.
For the compound `Cc1nc(C)c([C@H](OC(C)(C)C)C(=O)O)c(N2CCC(C)(C)CC2)c1-c1ccc(OC2Cc3ccccc3C2)cc1` [Example 12, (S)-2-(tert-Butoxy)-2-(5-(4-((2,3-dihydro-1H-inden-2-yl)oxy)phenyl)-4-(4,4-dimethylpiperidin-1-yl)-2,6-dimethylpyridin-3-yl)acetic Acid], the EC50 (MT2, 120 h, read-out: Activity) was less than 0.1 µM.
For the compound `Cc1nc(C)c([C@H](OC(C)(C)C)C(=O)O)c(N2CCC(C)(C)CC2)c1-c1ccc(OCCN2CCSCC2)cc1` [Example 13, (S)-2-(tert-Butoxy)-2-(4-(4,4-dimethylpiperidin-1-yl)-2,6-dimethyl-5-(4-(2-thiomorpholinoethoxy)phenyl)pyridin-3-yl)acetic Acid], the EC50 was less than 0.1 µM (MT2, 120 h, read-out: Activity) and 0.003 µM (MT2, 120 h, read-out: EC50 μM).
On to `Cc1nc(C)c([C@H](OC(C)(C)C)C(=O)O)c(N2CCC(C)(C)CC2)c1-c1ccc(OCCN2CCS(=O)(=O)CC2)cc1` [Example 14, (S)-2-(tert-Butoxy)-2-(4-(4,4-dimethylpiperidin-1-yl)-5-(4-(2-(1,1-dioxidothiomorpholino)ethoxy)phenyl)-2,6-dimethylpyridin-3-yl)acetic Acid], for which the EC50 (MT2, 120 h, read-out: Activity) was less than 0.1 µM.
With `Cc1nc(C)c([C@H](OC(C)(C)C)C(=O)O)c(N2CCC(C)(C)CC2)c1-c1ccc(OC2CC(c3ccc(F)cc3)C2)cc1` (stereo partly drawn) [Example 15, (S)-2-(tert-Butoxy)-2-(4-(4,4-dimethylpiperidin-1-yl)-5-(4-(3-(4-fluorophenyl)cyclobutoxy)phenyl)-2,6-dimethylpyridin-3-yl)acetic Acid], the EC50 (MT2, 120 h, read-out: Activity) is less than 0.1 µM.
For the compound `Cc1nc(C)c([C@H](OC(C)(C)C)C(=O)O)c(N2CCC(C)(C)CC2)c1-c1ccc(OC2CCC(c3ccc(F)cc3)CC2)cc1` (stereo partly drawn) [Example 16, (S)-2-(tert-Butoxy)-2-(4-(4,4-dimethylpiperidin-1-yl)-5-(4-((4-(4-fluorophenyl)cyclohexyl)oxy)phenyl)-2,6-dimethylpyridin-3-yl)acetic Acid], for the setting “MT2, 120 h, read-out: Activity”, the EC50 was less than 0.1 µM.
In the case of `Cc1nc(C)c([C@H](OC(C)(C)C)C(=O)O)c(N2CCC(C)(C)CC2)c1-c1ccc(OC2CCCC2c2ccc(F)cc2)cc1` (stereo partly drawn) [Example 17, (2S)-2-(tert-Butoxy)-2-(4-(4,4-dimethylpiperidin-1-yl)-5-(4-((2-(4-fluorophenyl)cyclopentyl)oxy)phenyl)-2,6-dimethylpyridin-3-yl)acetic acid], the EC50 was less than 0.1 µM (MT2, 120 h, read-out: Activity) and 0.012 µM (MT2, 120 h, read-out: EC50 μM).
Take `Cc1nc(C)c([C@H](OC(C)(C)C)C(=O)O)c(N2CCC(C)(C)CC2)c1-c1ccc(OC2CCCC2c2ccc(F)cc2)cc1` (stereo partly drawn) [Example 18, (2S)-2-(tert-Butoxy)-2-(4-(4,4-dimethylpiperidin-1-yl)-5-(4-((2-(4-fluorophenyl)cyclopentyl)oxy)phenyl)-2,6-dimethylpyridin-3-yl)acetic acid]: the EC50 ({}) is less than 0.1 µM.
On to `Cc1nc(C)c([C@H](OC(C)(C)C)C(=O)O)c(N2CCC(C)(C)CC2)c1-c1ccc(OC2COCC2c2ccc(F)cc2)cc1` (stereo partly drawn) [Example 19, (2S)-2-(tert-Butoxy)-2-(4-(4,4-dimethylpiperidin-1-yl)-5-(4-((4-(4-fluorophenyl)tetrahydrofuran-3-yl)oxy)phenyl)-2,6-dimethylpyridin-3-yl)acetic acid], for which the EC50 (MT2, 120 h, read-out: Activity) is less than 0.1 µM.
Regarding `Cc1nc(C)c([C@H](OC(C)(C)C)C(=O)O)c(N2CCC(C)(C)CC2)c1-c1ccc(OC2COCC2c2ccc(F)cc2)cc1` (stereo partly drawn) [Example 20, (2S)-2-(tert-Butoxy)-2-(4-(4,4-dimethylpiperidin-1-yl)-5-(4-((4-(4-fluorophenyl)tetrahydrofuran-3-yl)oxy)phenyl)-2,6-dimethylpyridin-3-yl)acetic acid], the EC50 ({}) was less than 0.1 µM.
